One data set addresses T1, hERG channel (Homo sapiens, UniProt Q12809).
T1 construct: expressed in transfected cells; host or cells: CHO (CHOhERG)
Put plainly: hERG channel inhibition assay (patch-clamp, CHOhERG cells). It counts as cell-based. Conditions: for IC50 / IC20: CHOhERG cells, whole-cell patch-clamp; for IC20: human, CHO cells stably expressing hERG (CHOhERG); for hERG IC20/TLR7 IC50 / hERG IC20/TLR8 IC50 / hERG IC20/TLR9 IC50: safety ratio; for hERG IC20/TLR7 IC50: hERG IC20 over HEK/hTLR7 IC50; for hERG IC20/TLR8 IC50: hERG IC20 over HEK/hTLR8 IC50; for hERG IC20/TLR9 IC50: hERG IC20 over HEK/hTLR9 IC50. Here is the method: The hERG K^+ channels were cloned in humans and stably expressed in a CHO (Chinese hamster ovary) cell line. CHOhERG cells were used for patch-clamp (voltage-clamp, whole-cell) experiments. Cells were stimulated by a voltage pattern to activate hERG channels and conduct IKhERG currents (rapid delayed outward rectifier potassium current of the hERG channel). After the cells were stabilized for a few minutes, the amplitude and kinetics of IKhERG were recorded at a stimulation frequency of 0.1 Hz (6 bpm). Thereafter, the test compound was added to the preparation at increasing concentrations. For each concentration, an attempt was made to reach a steady-state effect, usually, this was achieved within 3-10 min at which time the next highest concentration was applied. The amplitude and kinetics of IKhERG are recorded in each concentration of the drug which were compared to the control values (taken as 100%). (references: Redfern W S, Carlsson L, Davis A S, Lynch W G, MacKenzie I, Palethorpe S, Siegl P K, Strang I, Sullivan A T, Wallis R, Camm A J, Hammond T G. 2003; Relationships between preclinical cardiac electrophysiology, clinical QT interval prolongation and torsade de pointes for a broad range of drugs: evidence for a provisional safety margin in drug development. Cardiovasc. Res. 58:32-45, Sanguinetti MC, Tristani-Firouzi M. 2006; hERG potassium channels and cardiac arrhythmia. Nature 440:463-469, Webster R, Leishman D, Walker D. 2002; Towards a drug concentration effect relationship for QT prolongation and torsades de pointes. Curr. Opin. Drug Discov. Devel. 5:116-26).
For orientation: The hERG channel carries a current that helps repolarise heart muscle cells.

A further data set concerns the target T2, TLR9 (Homo sapiens, UniProt Q9NR96).
T2 sequence (Q9NR96 26-1032): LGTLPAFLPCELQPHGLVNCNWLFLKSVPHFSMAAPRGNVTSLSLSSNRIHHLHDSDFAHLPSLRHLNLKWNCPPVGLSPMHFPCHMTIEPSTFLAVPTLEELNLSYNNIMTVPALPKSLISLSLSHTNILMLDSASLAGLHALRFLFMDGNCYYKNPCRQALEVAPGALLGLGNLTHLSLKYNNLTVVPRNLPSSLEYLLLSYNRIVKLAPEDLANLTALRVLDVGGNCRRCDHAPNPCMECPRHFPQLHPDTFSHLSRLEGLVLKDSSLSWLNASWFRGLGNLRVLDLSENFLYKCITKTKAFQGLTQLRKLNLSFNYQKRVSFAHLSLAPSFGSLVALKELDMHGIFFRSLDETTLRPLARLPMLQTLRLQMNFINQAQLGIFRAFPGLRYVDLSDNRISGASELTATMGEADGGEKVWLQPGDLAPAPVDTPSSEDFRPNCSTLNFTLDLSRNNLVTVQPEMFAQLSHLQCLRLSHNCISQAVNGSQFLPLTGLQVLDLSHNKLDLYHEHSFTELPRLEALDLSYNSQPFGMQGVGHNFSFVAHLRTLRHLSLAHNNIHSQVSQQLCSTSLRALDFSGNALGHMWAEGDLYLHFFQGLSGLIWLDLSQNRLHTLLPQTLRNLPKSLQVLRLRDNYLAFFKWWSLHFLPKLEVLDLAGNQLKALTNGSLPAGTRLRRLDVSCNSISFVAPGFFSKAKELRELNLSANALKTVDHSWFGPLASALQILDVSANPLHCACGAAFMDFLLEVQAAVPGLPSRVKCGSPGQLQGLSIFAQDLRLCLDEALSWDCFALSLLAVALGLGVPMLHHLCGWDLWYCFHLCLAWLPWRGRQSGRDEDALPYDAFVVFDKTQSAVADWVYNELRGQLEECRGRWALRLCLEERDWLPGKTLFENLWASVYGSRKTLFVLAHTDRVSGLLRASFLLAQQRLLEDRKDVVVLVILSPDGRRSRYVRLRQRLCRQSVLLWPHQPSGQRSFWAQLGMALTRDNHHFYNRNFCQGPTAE
As to the kind of experiment: Human PBMC cell-based assay (CpG ODN 2216 stimulation). Set-up: These cells express TLR7, TLR8, or TLR9, and therefore are natural responders to respective ligand stimulation; endogenous in cells; host or cells: human PBMC from healthy donor whole blood. Conditions: CpG ODN 2216 at 1 μM, overnight, read-out: hPBMC/TLR9 IC50. The text has this: Unlike the HEK reporter cell lines, human peripheral blood mononuclear cell (PBMC) represents primary human immune cells in blood mainly consisting of lymphocytes, monocytes, and dendritic cells. These cells express TLR7, TLR8, or TLR9, and therefore are natural responders to respective ligand stimulation. Upon activation of these TLRs, PBMCs secrete similar cytokines and chemokines in vitro and in vivo, and therefore the in vitro potency of a TLR7/8/9 antagonist in human PBMC is readily translatable to its pharmacodynamics response in vivo.
Human peripheral blood mononuclear cells (PBMC) were isolated from freshly-drawn lithium-heparinized (Lithium Heparin Plus blood Collection tube, BD Vacutainer®) healthy donor whole blood by density gradient (Ficoll-Paque™ PLUS, GE Healthcare life Sciences). Briefly, 50 mL of blood was diluted with 25 mL PBS (without Ca^2+, Mg^2+) in a 50 mL conical tube with porous barrier (Leucosep tube, Greiner bio-one), where 15.5 mL Ficoll-Paque was under laid after spinning. Tubes were centrifuged for 20 minutes at 800×g (1946 rpm) with the brake in the off position, and PBMC were collected from the buffy coat. Cells were then washed twice in PBS, and red blood cells were lysed by suspension in 2 mL (Red Blood Cell Lysis Buffer, Alfa Aesar) for 5-10 minutes at room temperature. After a final wash in PBS, PBMC were resuspended at a final concentration of 2×10^6 cells/mL in RPMI-1640 media with GlutaMAX™ (Gibco) supplemented with 10% Fetal Bovine Serum (Sigma) and plated at 150 μL/well (3×10^5 cells/well) in tissue culture treated round bottom 96-well plates (Corning Incorporated). Antagonist compounds (compounds of this invention) solubilized and serial diluted in 100% DMSO were added in duplicate to cells to yield a final concentration of 1% DMSO (v/v). PBMC were incubated with antagonist compounds for 30 minutes at 37° C., 5% CO2 before adding various TLR agonist reagents in 48 μL complete media per well as follows (final concentrations indicated): CpG ODN 2216 (InvivoGen) at 1 μM for TLR9, ORN 06/LyoVec (InvivoGen) at […] for TLR8 and R848 (InvivoGen) at 1p g/mL for TLR7 and TLR8. PBMC were incubated overnight at 37° C. with 5% CO2. Cell culture supernatants were collected, and levels of various human cytokines were assessed by Luminex assay (ProcartaPlex™ Multiplex Immunoassay, Invitrogen) or ELISA procedure according to the manufacturer's recommended protocol (eBioscience, ThermoFisher Scientific). Viability of the cells was also checked with Cell Viability Assay (CellTiter Glo®Luminescent Cell Viability Assay, Promega).

Here are results for four compounds from patent publication US20240317735A1, “HYDROISOQUINOLINE OR HYDRONAPHTHYRIDINE COMPOUNDS FOR THE TREATMENT OF AUTOIMMUNE DISEASE” (Hoffmann-La Roche Inc., priority 2020, published 2024).

T1 sequence (Q12809 whole entry): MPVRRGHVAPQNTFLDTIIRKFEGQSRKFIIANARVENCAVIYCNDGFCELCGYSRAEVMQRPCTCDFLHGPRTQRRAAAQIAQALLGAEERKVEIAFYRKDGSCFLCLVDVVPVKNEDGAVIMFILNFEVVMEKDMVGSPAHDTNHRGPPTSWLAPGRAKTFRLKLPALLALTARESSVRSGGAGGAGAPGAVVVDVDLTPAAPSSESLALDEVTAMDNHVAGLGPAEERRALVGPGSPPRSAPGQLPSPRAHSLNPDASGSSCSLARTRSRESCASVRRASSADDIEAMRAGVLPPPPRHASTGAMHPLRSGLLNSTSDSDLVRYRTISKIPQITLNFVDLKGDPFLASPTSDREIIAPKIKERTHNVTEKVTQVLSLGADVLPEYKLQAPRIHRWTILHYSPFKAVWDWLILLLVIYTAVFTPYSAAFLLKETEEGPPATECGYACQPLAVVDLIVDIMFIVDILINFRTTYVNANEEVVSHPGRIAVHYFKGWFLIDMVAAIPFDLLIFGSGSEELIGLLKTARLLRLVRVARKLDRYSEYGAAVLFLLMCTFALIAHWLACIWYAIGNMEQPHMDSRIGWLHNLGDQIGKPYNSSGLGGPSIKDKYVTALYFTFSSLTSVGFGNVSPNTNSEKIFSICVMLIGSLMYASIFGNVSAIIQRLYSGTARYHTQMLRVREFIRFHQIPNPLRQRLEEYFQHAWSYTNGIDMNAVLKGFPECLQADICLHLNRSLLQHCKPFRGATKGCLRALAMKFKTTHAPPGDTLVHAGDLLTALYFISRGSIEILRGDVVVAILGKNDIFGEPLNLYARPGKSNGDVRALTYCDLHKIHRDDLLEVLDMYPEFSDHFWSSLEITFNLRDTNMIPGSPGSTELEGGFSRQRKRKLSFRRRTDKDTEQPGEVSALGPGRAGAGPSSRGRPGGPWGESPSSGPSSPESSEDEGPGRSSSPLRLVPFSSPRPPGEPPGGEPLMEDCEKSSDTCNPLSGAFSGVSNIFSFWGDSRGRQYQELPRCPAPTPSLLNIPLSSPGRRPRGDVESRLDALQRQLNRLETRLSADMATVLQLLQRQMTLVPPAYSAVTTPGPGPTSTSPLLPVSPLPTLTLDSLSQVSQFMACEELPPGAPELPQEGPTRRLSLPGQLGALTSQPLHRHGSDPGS

Usually IC20 stands for the concentration at which the effect reaches the 20% level. Turning to `C[C@H]1CN(c2ccnc3c2cnn3C)Cc2ccc(OC[C@@H]3CNCCN3)cc21` [Example 19, (4R)-4-methyl-2-(1-methylpyrazolo[3,4-b]pyridin-4-yl)-6-[[(2S)-piperazin-2-yl]methoxy]-3,4-dihydro-1H-isoquinoline], at hERG channel, the IC50 is over 20 µM, it took 6.3 µM to reach the 20% level (IC20), the “hERG IC20/TLR7 IC50” value was 787.5 and the “hERG IC20/TLR8 IC50” value is listed as 1575.0. Also, the “hERG IC20/TLR9 IC50” value on hERG channel was 62.4. The IC50 on TLR9 turned out to be 0.395 µM.

`Cc1cc(N2Cc3ccc(OC[C@@H]4CNCCN4)cc3[C@@H](C)C2)c2cnn(C)c2n1` [Example 31, (4R)-2-(1,6-dimethylpyrazolo[3,4-b]pyridin-4-yl)-4-methyl-6-[[(2S)-piperazin-2-yl]methoxy]-3,4-dihydro-1H-isoquinoline]: on hERG channel, the IC50 was over 20 µM, the 20% effect level (IC20) was put at 8.5 µM, the “hERG IC20/TLR7 IC50” value is 354.2 and the “hERG IC20/TLR8 IC50” value is 4250.0. Besides, the “hERG IC20/TLR9 IC50” value on hERG channel came to 81.0. Further, the IC50 at TLR9 worked out at 0.214 µM.

For the compound `C[C@H]1CN(c2ccnc3c2cnn3C)Cc2ccc(OC3CN(C4CCNCC4)C3)cc21` [Example 41, (4R)-4-methyl-2-(1-methylpyrazolo[3,4-b]pyridin-4-yl)-6-[1-(4-piperidyl)azetidin-3-yl]oxy-3,4-dihydro-1H-isoquinoline], at hERG channel, the IC50 is over 20 µM, the 20% effect level (IC20) was put at 5.1 µM, the “hERG IC20/TLR7 IC50” value was found to be 728.6 and the “hERG IC20/TLR8 IC50” value was 637.5. Besides, the “hERG IC20/TLR9 IC50” value on hERG channel came out at 108.5. Also, the IC50 on TLR9 was found to be 0.286 µM.

For the compound `CO[C@H]1CN(c2cc3c(cn2)CN(c2cc(C)nc4c2cnn4C)C[C@@H]3C)CC[C@@H]1N` [Example 73, (3S,4S)-3-methoxy-1-[(5R)-7-(1,6-dimethylpyrazolo[3,4-b]pyridin-4-yl)-5-methyl-6,8-dihydro-5H-2,7-naphthyridin-3-yl]piperidin-4-amine], on hERG channel, the IC50 was over 20 µM, the IC20 was 6.9 µM, the “hERG IC20/TLR7 IC50” value was found to be 1725.0 and the “hERG IC20/TLR8 IC50” value turned out to be 3450.0. Also, the “hERG IC20/TLR9 IC50” value on hERG channel came out at 60.0. The IC50 on TLR9 is 0.34 µM.
